Results reported in article PMC8185074, “Anchor extension: a structure-guided approach to design cyclic peptides targeting enzyme active sites” (Nature Communications, 2021).
Peptide text beside a SMILES is read from it.

Tests used:
Type in all cases: biochemical
HDAC6 = molecular target: T1, HDAC6 (Homo sapiens, UniProt Q9UBN7); experiment: HDAC6 inhibition, full IC50 measurement (Reaction Biology; fluorogenic p53 peptide RHKK(Ac)AMC)
T1 construct: purchased Reaction Biology Corporation (assay run by the CRO)
T1 sequence (Q9UBN7 1-1215): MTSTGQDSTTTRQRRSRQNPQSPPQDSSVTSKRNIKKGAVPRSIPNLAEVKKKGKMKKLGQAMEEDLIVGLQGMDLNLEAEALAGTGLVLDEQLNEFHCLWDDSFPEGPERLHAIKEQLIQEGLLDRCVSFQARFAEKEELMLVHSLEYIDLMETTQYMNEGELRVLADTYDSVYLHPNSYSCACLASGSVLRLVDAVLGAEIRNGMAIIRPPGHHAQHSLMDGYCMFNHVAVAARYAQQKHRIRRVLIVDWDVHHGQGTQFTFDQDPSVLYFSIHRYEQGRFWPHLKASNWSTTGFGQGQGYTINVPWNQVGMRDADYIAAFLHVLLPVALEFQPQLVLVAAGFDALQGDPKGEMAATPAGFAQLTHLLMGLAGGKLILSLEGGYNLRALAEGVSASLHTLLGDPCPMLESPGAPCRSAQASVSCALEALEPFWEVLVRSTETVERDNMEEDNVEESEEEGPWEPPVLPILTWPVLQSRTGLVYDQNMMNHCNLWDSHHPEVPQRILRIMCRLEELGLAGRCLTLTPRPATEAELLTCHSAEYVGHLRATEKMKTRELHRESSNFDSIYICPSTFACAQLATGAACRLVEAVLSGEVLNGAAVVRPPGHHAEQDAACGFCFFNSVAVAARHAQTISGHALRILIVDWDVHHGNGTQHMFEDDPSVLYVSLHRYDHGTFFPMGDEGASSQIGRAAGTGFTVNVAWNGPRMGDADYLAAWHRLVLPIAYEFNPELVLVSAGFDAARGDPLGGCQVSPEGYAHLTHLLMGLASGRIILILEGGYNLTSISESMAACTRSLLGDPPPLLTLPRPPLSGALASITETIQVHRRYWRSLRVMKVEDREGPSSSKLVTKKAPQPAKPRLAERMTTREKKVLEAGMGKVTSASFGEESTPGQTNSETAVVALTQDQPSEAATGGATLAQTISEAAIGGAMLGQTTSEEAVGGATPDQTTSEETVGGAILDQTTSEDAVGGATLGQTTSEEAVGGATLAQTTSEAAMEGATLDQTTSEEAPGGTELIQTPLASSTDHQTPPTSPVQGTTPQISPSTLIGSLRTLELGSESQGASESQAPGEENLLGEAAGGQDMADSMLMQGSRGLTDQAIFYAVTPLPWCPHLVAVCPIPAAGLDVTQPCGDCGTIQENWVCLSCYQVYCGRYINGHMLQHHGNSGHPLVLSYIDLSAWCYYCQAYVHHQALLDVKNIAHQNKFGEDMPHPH
Procedure, shortened: (§1)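 Deacetylation of 50 μM RHKK(Ac)AMC is measured after 1 h at 30 °C in pH 8.0 Tris buffer (1% DMSO, 1 mg/ml BSA). Developer ends the reaction; the post-plateau 360/460 nm signal is fitted to IC50, averaging replicate measurements.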

HDAC8 = molecular target: T2, HDAC8 (Homo sapiens, UniProt Q9BY41); experiment: HDAC8 inhibition, full IC50 measurement (Reaction Biology; fluorogenic p53 peptide RHKK(Ac)AMC); details: t1/t2 replicates
T2 construct: purchased Reaction Biology Corporation (assay run by the CRO)
T2 sequence (Q9BY41 1-377): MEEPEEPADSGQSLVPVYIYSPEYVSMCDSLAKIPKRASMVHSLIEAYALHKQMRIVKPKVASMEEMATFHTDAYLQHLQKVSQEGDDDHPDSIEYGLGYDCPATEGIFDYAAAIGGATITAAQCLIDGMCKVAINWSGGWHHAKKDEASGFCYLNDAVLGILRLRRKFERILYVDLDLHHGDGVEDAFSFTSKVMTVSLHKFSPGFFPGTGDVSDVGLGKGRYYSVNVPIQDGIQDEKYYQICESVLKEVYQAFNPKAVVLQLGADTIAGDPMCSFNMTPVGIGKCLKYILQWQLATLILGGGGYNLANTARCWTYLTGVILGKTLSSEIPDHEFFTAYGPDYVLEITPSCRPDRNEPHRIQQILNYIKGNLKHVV
Procedure, shortened: as §1

HDAC1 = molecular target: T3, HDAC1 (Homo sapiens, UniProt Q13547); experiment: HDAC1 inhibition, full IC50 measurement (Reaction Biology; fluorogenic p53 peptide RHKK(Ac)AMC); details: t1/t2 replicates
T3 construct: purchased Reaction Biology Corporation (assay run by the CRO)
T3 sequence (Q13547 whole entry): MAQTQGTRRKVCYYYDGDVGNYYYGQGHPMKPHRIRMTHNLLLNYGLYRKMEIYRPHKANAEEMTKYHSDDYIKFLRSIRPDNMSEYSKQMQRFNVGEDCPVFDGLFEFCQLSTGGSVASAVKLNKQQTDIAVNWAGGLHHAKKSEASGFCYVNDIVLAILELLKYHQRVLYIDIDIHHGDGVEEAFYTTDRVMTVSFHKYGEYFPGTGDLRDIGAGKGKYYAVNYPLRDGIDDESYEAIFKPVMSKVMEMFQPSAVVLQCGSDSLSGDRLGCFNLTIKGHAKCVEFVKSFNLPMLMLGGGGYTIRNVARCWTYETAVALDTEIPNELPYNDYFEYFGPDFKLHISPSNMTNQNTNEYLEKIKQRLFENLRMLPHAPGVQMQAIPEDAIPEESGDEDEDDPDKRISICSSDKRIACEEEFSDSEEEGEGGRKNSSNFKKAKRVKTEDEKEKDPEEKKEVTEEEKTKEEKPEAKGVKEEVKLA
Procedure, shortened: as §1

SMILES: N=C(N)NCCC[C@@H]1NC(=O)[C@@H](CCCNC(=N)N)NC(=O)[C@H]2CCCN2C(=O)[C@@H](Cc2c[nH]cn2)NC(=O)[C@H](Cc2ccc(O)cc2)NC(=O)[C@H](CCCCCS)NC(=O)[C@H](CCc2ccccc2)NC(=O)[C@@H](CO)NC(=O)[C@H](CC(=O)O)NC1=O [des3.3.1, SHA-Tyr-dHis-dPro-dArg-Arg-Asp-dSer-C27] (HELM PEPTIDE1{[O=C([C@H](CCCCCS)N[*:1])[*:2]].Y.[dH].[dP].[dR].R.D.[dS].[O=C([C@H](CCc1ccccc1)N[*:1])[*:2]]}$PEPTIDE1,PEPTIDE1,1:R1-9:R2$$$V2.0)
- HDAC6 activity raw data (signal) (HDAC6; Conc. 1.00E-05 M, t1): 557
- HDAC6 activity raw data (signal) (HDAC6; Conc. 1.00E-05 M, t2): -139
- HDAC6 activity raw data (signal) (HDAC6; Conc. 1.11E-06 M, t1): 10535
- HDAC6 activity raw data (signal) (HDAC6; Conc. 1.11E-06 M, t2): 12694
- HDAC6 activity raw data (signal) (HDAC6; Conc. 1.23E-07 M, t1): 31520
- HDAC6 activity raw data (signal) (HDAC6; Conc. 1.23E-07 M, t2): 38979
- HDAC6 activity raw data (signal) (HDAC6; Conc. 1.37E-08 M, t1): 82998
- HDAC6 activity raw data (signal) (HDAC6; Conc. 1.37E-08 M, t2): 93685
- HDAC6 activity raw data (signal) (HDAC6; Conc. 1.52E-09 M, t1): 115704
- HDAC6 activity raw data (signal) (HDAC6; Conc. 1.52E-09 M, t2): 134545
- HDAC6 activity raw data (signal) (HDAC6; Conc. 3.33E-06 M, t1): 4544
- HDAC6 activity raw data (signal) (HDAC6; Conc. 3.33E-06 M, t2): 5827
- HDAC6 activity raw data (signal) (HDAC6; Conc. 3.70E-07 M, t1): 20428
- HDAC6 activity raw data (signal) (HDAC6; Conc. 3.70E-07 M, t2): 19976
- HDAC6 activity raw data (signal) (HDAC6; Conc. 4.12E-08 M, t1): 50772
- HDAC6 activity raw data (signal) (HDAC6; Conc. 4.12E-08 M, t2): 68185
- HDAC6 activity raw data (signal) (HDAC6; Conc. 4.57E-09 M, t1): 115536
- HDAC6 activity raw data (signal) (HDAC6; Conc. 4.57E-09 M, t2): 120171
- HDAC6 activity raw data (signal) (HDAC6; Conc. 5.08E-10 M, t1): 151999
- HDAC6 activity raw data (signal) (HDAC6; Conc. 5.08E-10 M, t2): 154121
- HDAC8 activity raw data (signal) (HDAC8; peptide conc. 1.00E-05 M, listed as des3.3.1_t1): 1764805
- HDAC8 activity raw data (signal) (HDAC8; peptide conc. 1.00E-05 M, listed as des3.3.1_t2): 2650341
- HDAC8 activity raw data (signal) (HDAC8; peptide conc. 1.11E-06 M, listed as des3.3.1_t1): 12709203
- HDAC8 activity raw data (signal) (HDAC8; peptide conc. 1.11E-06 M, listed as des3.3.1_t2): 10450749
- HDAC8 activity raw data (signal) (HDAC8; peptide conc. 1.23E-07 M, listed as des3.3.1_t1): 26946160
- HDAC8 activity raw data (signal) (HDAC8; peptide conc. 1.23E-07 M, listed as des3.3.1_t2): 26450742
- HDAC8 activity raw data (signal) (HDAC8; peptide conc. 1.37E-08 M, listed as des3.3.1_t1): 39769433
- HDAC8 activity raw data (signal) (HDAC8; peptide conc. 1.37E-08 M, listed as des3.3.1_t2): 37609928
- HDAC8 activity raw data (signal) (HDAC8; peptide conc. 1.52E-09 M, listed as des3.3.1_t1): 46887256
- HDAC8 activity raw data (signal) (HDAC8; peptide conc. 1.52E-09 M, listed as des3.3.1_t2): 44277806
- HDAC8 activity raw data (signal) (HDAC8; peptide conc. 3.33E-06 M, listed as des3.3.1_t1): 5825269
- HDAC8 activity raw data (signal) (HDAC8; peptide conc. 3.33E-06 M, listed as des3.3.1_t2): 6935130
- HDAC8 activity raw data (signal) (HDAC8; peptide conc. 3.70E-07 M, listed as des3.3.1_t1): 21428540
- HDAC8 activity raw data (signal) (HDAC8; peptide conc. 3.70E-07 M, listed as des3.3.1_t2): 18809141
- HDAC8 activity raw data (signal) (HDAC8; peptide conc. 4.12E-08 M, listed as des3.3.1_t1): 34070523
- HDAC8 activity raw data (signal) (HDAC8; peptide conc. 4.12E-08 M, listed as des3.3.1_t2): 34526681
- HDAC8 activity raw data (signal) (HDAC8; peptide conc. 4.57E-09 M, listed as des3.3.1_t1): 42350569
- HDAC8 activity raw data (signal) (HDAC8; peptide conc. 4.57E-09 M, listed as des3.3.1_t2): 43646566
- HDAC8 activity raw data (signal) (HDAC8; peptide conc. 5.08E-10 M, listed as des3.3.1_t1): 45458566
- HDAC8 activity raw data (signal) (HDAC8; peptide conc. 5.08E-10 M, listed as des3.3.1_t2): 46659013
- HDAC1 activity raw data (signal) (HDAC1; peptide conc. 1.00E-06 M, listed as des3.3.1_t1): 15410
- HDAC1 activity raw data (signal) (HDAC1; peptide conc. 1.00E-06 M, listed as des3.3.1_t2): 7555
- HDAC1 activity raw data (signal) (HDAC1; peptide conc. 1.11E-07 M, listed as des3.3.1_t1): 112128
- HDAC1 activity raw data (signal) (HDAC1; peptide conc. 1.11E-07 M, listed as des3.3.1_t2): 105674
- HDAC1 activity raw data (signal) (HDAC1; peptide conc. 1.23E-08 M, listed as des3.3.1_t1): 518542
- HDAC1 activity raw data (signal) (HDAC1; peptide conc. 1.23E-08 M, listed as des3.3.1_t2): 461507
- HDAC1 activity raw data (signal) (HDAC1; peptide conc. 1.37E-09 M, listed as des3.3.1_t1): 889775
- HDAC1 activity raw data (signal) (HDAC1; peptide conc. 1.37E-09 M, listed as des3.3.1_t2): 866345
- HDAC1 activity raw data (signal) (HDAC1; peptide conc. 1.52E-10 M, listed as des3.3.1_t1): 1024825
- HDAC1 activity raw data (signal) (HDAC1; peptide conc. 1.52E-10 M, listed as des3.3.1_t2): 1088311
- HDAC1 activity raw data (signal) (HDAC1; peptide conc. 3.33E-07 M, listed as des3.3.1_t1): 46006
- HDAC1 activity raw data (signal) (HDAC1; peptide conc. 3.33E-07 M, listed as des3.3.1_t2): 42579
- HDAC1 activity raw data (signal) (HDAC1; peptide conc. 3.70E-08 M, listed as des3.3.1_t1): 265387
- HDAC1 activity raw data (signal) (HDAC1; peptide conc. 3.70E-08 M, listed as des3.3.1_t2): 253770
- HDAC1 activity raw data (signal) (HDAC1; peptide conc. 4.12E-09 M, listed as des3.3.1_t1): 789498
- HDAC1 activity raw data (signal) (HDAC1; peptide conc. 4.12E-09 M, listed as des3.3.1_t2): 714925
- HDAC1 activity raw data (signal) (HDAC1; peptide conc. 4.57E-10 M, listed as des3.3.1_t1): 1015951
- HDAC1 activity raw data (signal) (HDAC1; peptide conc. 4.57E-10 M, listed as des3.3.1_t2): 1019110
- HDAC1 activity raw data (signal) (HDAC1; peptide conc. 5.08E-11 M, listed as des3.3.1_t1): 1072870
- HDAC1 activity raw data (signal) (HDAC1; peptide conc. 5.08E-11 M, listed as des3.3.1_t2): 1116290
